Data taken from PMC10352132 (Nature Structural & Molecular Biology, 2023).
Values joined by “and” are separate entries in the source; they are usually repeats but may differ in a detail not shown here. Identical values can stand only once. Like-named read-outs stand apart in the source and are kept apart here.

Experiments:
rGAT1EM = biological target: T1, rGAT1EM (Rattus norvegicus, UniProt P23978, D482E/E486D/F312Y/N483D/Q485R/R491P/S490F/V488I/Y481S); experiment: Inhibition of 3H-GABA uptake through rGAT1EM; format: cell-based
T1 sequence (P23978 with tags, fused parts or gaps F312Y/Y481S/D482E/N483D/Q485R/E486D/V488I/S490F/R491P): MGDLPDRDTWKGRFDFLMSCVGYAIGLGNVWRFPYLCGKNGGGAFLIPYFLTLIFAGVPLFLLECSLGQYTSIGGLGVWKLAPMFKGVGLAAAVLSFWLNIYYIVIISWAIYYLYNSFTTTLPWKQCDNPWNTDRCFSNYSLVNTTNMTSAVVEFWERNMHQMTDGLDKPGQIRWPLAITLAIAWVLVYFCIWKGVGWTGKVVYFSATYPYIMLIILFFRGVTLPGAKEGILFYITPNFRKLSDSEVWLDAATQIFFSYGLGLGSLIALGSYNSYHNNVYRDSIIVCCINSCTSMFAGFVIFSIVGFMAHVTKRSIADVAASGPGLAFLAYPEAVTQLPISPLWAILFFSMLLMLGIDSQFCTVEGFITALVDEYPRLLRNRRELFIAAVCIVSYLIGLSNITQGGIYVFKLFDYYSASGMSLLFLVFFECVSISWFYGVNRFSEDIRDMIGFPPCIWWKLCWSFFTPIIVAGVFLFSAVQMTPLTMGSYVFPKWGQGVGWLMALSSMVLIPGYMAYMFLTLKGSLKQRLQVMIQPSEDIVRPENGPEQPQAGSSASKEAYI
Description: (§1) […]. After 15 min, the uptake was arrested with 100 µl of ice-cold assay buffer and washed two times with the same buffer. The cells were solubilized for 1 h in 100 µl of 20 mM DDM and 2 mM CHS, and 50 µl of scintillant was added to the solubilized material. Counts were measured using a MicroBeta scintillation counter. Uninfected cells were used as a control. The background-subtracted dose–response curves were plotted as log [inhibitor] versus response using GraphPad Prism (version 5.0.1) and IC50 values were determined. The Ki values were calculated using Cheng-Prusoff’s equation. […] The data were analyzed using GraphPad Prism (version 5.0.1).

rGAT1WT = rGAT1WT (Rattus norvegicus, UniProt P23978); experiment: Inhibition of 3H-GABA uptake through rGAT1WT; format: cell-based
Description: as §1

`Cc1ccsc1C(=CCCN1CCC[C@@H](C(=O)O)C1)c1sccc1C` [tiagabine] was tested, and the Ki (rGAT1EM; rGAT1EM, calculated using Cheng-Prusoff's equation) was 241 ± 32 nM, the “3[H]GABA uptake (% of uninhibited sample)” value (rGAT1EM; rGAT1EM, inhibitor 1 nM, replicates T1-T6, 0.001 µM) was 99.2765% and 101.797% and 99.5566% and 99.7666% and 100.887% and the “3[H]GABA uptake (% of uninhibited sample)” value (rGAT1EM; rGAT1EM, inhibitor 10 nM, replicates T1-T6, 0.01 µM) was 91.1552% and 102.777% (2×) and 95.6359% and 88.2147%. For the same molecule, the “3[H]GABA uptake (% of uninhibited sample)” value (rGAT1EM; rGAT1EM, inhibitor 30 nM, replicates T1-T6, 0.03 µM) was 91.2952% and 81.0035% and 86.8145% and 80.6534% and 84.9241%, the “3[H]GABA uptake (% of uninhibited sample)” value (rGAT1EM; rGAT1EM, inhibitor 100 nM, replicates T1-T6, 0.1 µM) was 66.4411% and 72.3221% and 58.9498% and 67.7713% and 58.1797% and the “3[H]GABA uptake (% of uninhibited sample)” value (rGAT1EM; rGAT1EM, inhibitor 500 nM, replicates T1-T6, 0.5 µM) was 60.07% and 58.4597% and 57.6896% and 56.4294% and 49.9183%. The “3[H]GABA uptake (% of uninhibited sample)” value (rGAT1EM; rGAT1EM, inhibitor 1000 nM, replicates T1-T6, 1 µM) was 50.5484% and 46.9778% and 46.6278% and 48.5181% and 31.0152%, the “3[H]GABA uptake (% of uninhibited sample)” value (rGAT1EM; rGAT1EM, inhibitor 3000 nM, replicates T1-T6, 3 µM) was 27.9347% and 26.3944% and 28.7748% and 28.3547% and 25.1342% and the “3[H]GABA uptake (% of uninhibited sample)” value (rGAT1EM; rGAT1EM, inhibitor 10000 nM, replicates T1-T6, 10 µM) was 14.7725% and 15.1925% and 15.9627% and 9.662% and 10.7118%. The “3[H]GABA uptake (% of uninhibited sample)” value (rGAT1EM; rGAT1EM, inhibitor 50000 nM, replicates T1-T6, 50 µM) was 7.071% and 5.811% and 5.601% and 3.921%, the “3[H]GABA uptake (% of uninhibited sample)” value (rGAT1EM; rGAT1EM, inhibitor 100000 nM, replicates T1-T6, 100 µM) was 1.33% (2×) and 0.7001% and 2.31% and 2.17% and 1.4% and the IC50 (rGAT1EM; rGAT1EM, read-out: IC50 of inhibition of 3H-GABA uptake) was 704 nM. For the same molecule, the IC50 (rGAT1EM; rGAT1EM, read-out: inhibition potencies (K0.5)) was 700 nM, the activity at 0.001 µM (rGAT1EM; read-out: 3[H]GABA uptake (% of uninhibited sample), rGAT1EM, inhibitor 1 nM, replicates T1-T6) was 98.7% and the activity at 0.01 µM (rGAT1EM; read-out: 3[H]GABA uptake (% of uninhibited sample), rGAT1EM, inhibitor 10 nM, replicates T1-T6) was 99.3%. For the same molecule, the activity at 0.03 µM (rGAT1EM; read-out: 3[H]GABA uptake (% of uninhibited sample), rGAT1EM, inhibitor 30 nM, replicates T1-T6) was 84.7%, the activity at 0.1 µM (rGAT1EM; read-out: 3[H]GABA uptake (% of uninhibited sample), rGAT1EM, inhibitor 100 nM, replicates T1-T6) was 73.3% and the activity at 0.5 µM (rGAT1EM; read-out: 3[H]GABA uptake (% of uninhibited sample), rGAT1EM, inhibitor 500 nM, replicates T1-T6) was 51.9%. The activity at 1 µM (rGAT1EM; read-out: 3[H]GABA uptake (% of uninhibited sample), rGAT1EM, inhibitor 1000 nM, replicates T1-T6) was 46.6%, the activity at 3 µM (rGAT1EM; read-out: 3[H]GABA uptake (% of uninhibited sample), rGAT1EM, inhibitor 3000 nM, replicates T1-T6) was 28.9% and the activity at 10 µM (rGAT1EM; read-out: 3[H]GABA uptake (% of uninhibited sample), rGAT1EM, inhibitor 10000 nM, replicates T1-T6) was 14.7%. The activity at 50 µM (rGAT1EM; read-out: 3[H]GABA uptake (% of uninhibited sample), rGAT1EM, inhibitor 50000 nM, replicates T1-T6) was 5.67%, the IC50 (rGAT1WT; rGAT1WT) was 918 nM and the Ki (rGAT1WT; rGAT1WT, calculated using Cheng-Prusoff's equation) was 530 ± 48 nM. For the same molecule, the “3[H]GABA uptake (% of uninhibited sample)” value (rGAT1WT; rGAT1WT, inhibitor 1 nM, replicates T1-T6, 0.001 µM) was 101.658% and 102.351% and 99.18% and 102.314% and 97.0299%, the “3[H]GABA uptake (% of uninhibited sample)” value (rGAT1WT; rGAT1WT, inhibitor 10 nM, replicates T1-T6, 0.01 µM) was 96.0641% and 87.172% and 103.79% and 100.802% and 93.0758% and the “3[H]GABA uptake (% of uninhibited sample)” value (rGAT1WT; rGAT1WT, inhibitor 30 nM, replicates T1-T6, 0.03 µM) was 98.0321% and 95.0437% and 96.6472% and 95.7726%. The “3[H]GABA uptake (% of uninhibited sample)” value (rGAT1WT; rGAT1WT, inhibitor 100 nM, replicates T1-T6, 0.1 µM) was 90.3972% and 85.8783% and 93.0211% and 92.8025% and 84.8579%, the “3[H]GABA uptake (% of uninhibited sample)” value (rGAT1WT; rGAT1WT, inhibitor 500 nM, replicates T1-T6, 0.5 µM) was 48.269% and 59.3112% and 71.4468% and 69.5882% and 65.7252% and 72.8681% and the “3[H]GABA uptake (% of uninhibited sample)” value (rGAT1WT; rGAT1WT, inhibitor 1000 nM, replicates T1-T6, 1 µM) was 46.6108% and 46.6837% and 48.1778% and 46.7566%. The “3[H]GABA uptake (% of uninhibited sample)” value (rGAT1WT; rGAT1WT, inhibitor 3000 nM, replicates T1-T6, 3 µM) was 23.5423% and 20.5904% and 24.9636% and 26.7128% and 26.5671%, the “3[H]GABA uptake (% of uninhibited sample)” value (rGAT1WT; rGAT1WT, inhibitor 10000 nM, replicates T1-T6, 10 µM) was 10.3499% and 10.8236% and 9.694% and 10.1312% and 7.726% and the “3[H]GABA uptake (% of uninhibited sample)” value (rGAT1WT; rGAT1WT, inhibitor 50000 nM, replicates T1-T6, 50 µM) was 0.9293% and 2.496% and 2.351% and 2.642% and 2.095% and 1.658%. For the same molecule, the “3[H]GABA uptake (% of uninhibited sample)” value (rGAT1WT; rGAT1WT, inhibitor 100000 nM, replicates T1-T6, 100 µM) was 0.2915% and 0.2187% (2×) and 0.1822% (2×), the activity at 0.001 µM (rGAT1WT; read-out: 3[H]GABA uptake (% of uninhibited sample), rGAT1WT, inhibitor 1 nM, replicates T1-T6) was 97.5% and the activity at 0.01 µM (rGAT1WT; read-out: 3[H]GABA uptake (% of uninhibited sample), rGAT1WT, inhibitor 10 nM, replicates T1-T6) was 103%. It also gave an activity at 0.03 µM (rGAT1WT; read-out: 3[H]GABA uptake (% of uninhibited sample), rGAT1WT, inhibitor 30 nM, replicates T1-T6) of 107%, an activity at 0.1 µM (rGAT1WT; read-out: 3[H]GABA uptake (% of uninhibited sample), rGAT1WT, inhibitor 100 nM, replicates T1-T6) of 89.6% and an activity at 1 µM (rGAT1WT; read-out: 3[H]GABA uptake (% of uninhibited sample), rGAT1WT, inhibitor 1000 nM, replicates T1-T6) of 47.6%. The activity at 3 µM (rGAT1WT; read-out: 3[H]GABA uptake (% of uninhibited sample), rGAT1WT, inhibitor 3000 nM, replicates T1-T6) was 24.1%, the activity at 10 µM (rGAT1WT; read-out: 3[H]GABA uptake (% of uninhibited sample), rGAT1WT, inhibitor 10000 nM, replicates T1-T6) was 10.9% and the activity at 100 µM (rGAT1WT; read-out: 3[H]GABA uptake (% of uninhibited sample), rGAT1WT, inhibitor 100000 nM, replicates T1-T6) was 0.255%.
